Source: patent US9809604B2, “DGAT1 inhibitor and preparation method and use thereof” (Qingdao Huanghai Pharmaceutical Co., Ltd., priority 2013, dated 2017)
In brackets after ≈: the same amount, converted by molar mass. Where two headings read alike, the source gives them in different places.

Experiments:
mouse DGAT1 = target: T1, mouse DGAT1 (Mus musculus, UniProt Q9Z2A7); assay: Mouse DGAT1 IC50 enzymatic assay; assay type: biochemical
T1 construct: made in house
T1 sequence (Q9Z2A7 1-498): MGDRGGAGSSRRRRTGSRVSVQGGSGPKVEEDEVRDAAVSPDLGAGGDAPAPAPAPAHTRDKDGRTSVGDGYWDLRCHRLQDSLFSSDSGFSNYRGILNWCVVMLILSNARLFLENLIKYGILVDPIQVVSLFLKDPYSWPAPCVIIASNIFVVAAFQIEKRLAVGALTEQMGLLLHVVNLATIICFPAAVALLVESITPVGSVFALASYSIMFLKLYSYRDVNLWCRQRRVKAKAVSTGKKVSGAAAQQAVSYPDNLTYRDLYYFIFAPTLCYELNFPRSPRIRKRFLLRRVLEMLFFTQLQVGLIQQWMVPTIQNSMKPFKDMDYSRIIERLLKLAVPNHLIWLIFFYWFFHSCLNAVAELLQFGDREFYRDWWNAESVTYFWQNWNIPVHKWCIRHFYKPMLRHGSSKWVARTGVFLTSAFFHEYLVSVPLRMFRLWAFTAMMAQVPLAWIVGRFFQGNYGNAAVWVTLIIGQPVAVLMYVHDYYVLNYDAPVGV
Method: Expressing human DGAT1 enzyme, used diacylglycerol and 14C-labeled acyl-CoA as the substrate, choose PE Company Flashplate testing board to build DGAT1 enzyme reaction system. 14C-labeled acyl-CoA binds to diacylglycerol by covalent bonding after enzymology reaction, and generates the product of 14C-labeled triglyceride. 14C-labeled acyl-CoA substrate is dissolved in reaction solution and 14C-labeled triglyceride product combine with phospholipids of Flashplate plate bottom layer, thus effectively separate labeled substrates and products. The radioactive of 14C-labeled triglyceride which is combined with phospholipid layer is counted, and the potencies of DGAT-1 inhibition for the compounds are determined by calculating the IC50 values.
Mouse DGAT1 activity was determined as follows:
Mouse DGAT1 IC50 determination method: in addition to expression of mouse DGAT1, experiment method with human DGAT1 enzymatic assay is the same.

Solubility at pH 7.4 = assay type: physicochemical; details: pH 7.4, aqueous buffer; read-out: Sol pH 7.4
[1] = Plasma pharmacokinetics in male SD rats; assay type: in vivo; details: rat
Method: (3) Pharmacokinetics of Test Compounds
The purpose of this study is to determine the plasma pharmacokinetics of male SD rats. Two animals will receive a solution of test article in vehicle by single intravenous bolus via tail vein; the dosage is 2 mg/kg. Blood samples are taken at specified time points (0, 0.0833, 0.25, 0.5, 1, 2, 4, 7, 24 h) after dosing. Another two animals will receive a solution or suspension of TA in vehicle by oral gavage at 10 mg/kg. The schedule for sample collection is 0.5, 1, 2, 3, 4, 6, 24 h after dosing. A LC/MS/MS method is used to measure the concentration of test compound in plasma. Non-compartmental pharmacokinetic analysis is performed on the plasma concentration-time data. PK parameters of calculations are done using Phoenix WinNonlin. 6.2.1 software program.

[2] = test system: plasma triacylglycerol levels; assay: Lipid tolerance test in mice; assay type: in vivo
Method: (1) Lipid Tolerance Test in Mice:
CDI mice (30 g or so) were individually housed in hanging wire cages at 20-25° C. with a 12:12 hour light:dark cycle (Humidity: 40˜70%). The mice had ad libitum access to water. On the day of experimentation, food jars were removed from each cage 16 hours prior to rate received either vehicle or test article based on a randomization plan generated by randomization. After sixty minutes, oral administration (gavage) of corn oil at a dose volume of 6 mL/kg (time=0). Blood samples were obtained from each mouse via tail snip procedure at −0.5, 0.5, 1, 2 and 4 hours. 20 ul of blood sampling will be rapidly collected, and then is centrifuged at 7000 rpm for 10 min to determine plasma triacylglycerol levels. Triglyceride was quantitated using TG ELISA kit. All data will be analyzed using SPSS. p<0.05 is considered to be statistically significant.

[3] = Diet induced obesity in mice; assay type: in vivo; details: DIO mice, 10mpk BID, 7 days
Method: (2) Diet Induced Obesity in Mice
Male C57bl/6J mice (6 weeks) were individually housed in hanging wire cages at 20-25° C. with a 12:12 hour light:dark cycle (Humidity: 40˜70%). After one week acclimation, the mice are fed with high fat pelleted diet (D12492i, Research Diets, Inc) and fresh water, ad libitum. Typically; C57BL/6J male mice become obese, and reach 40-50 g after 12-14 weeks of high fat diet treatment.
Animals accept oral gavages acclimation for two weeks. Then next, they are dosed with test articles or vehicle (bid) accordingly for 7 day. Food intake and body weight are recorded every day. Data are graphed by Graph Pad Prism 5.0 and evaluated using SPSS, p<0.05 is considered to be statistically significant.

DGAT1 [4] = target: T2, DGAT1 (Homo sapiens, UniProt O75907); assay: Human DGAT1 IC50 enzyme assay (Flashplate, 14C-labeled acyl-CoA); assay type: biochemical; design: made in house
T2 sequence (O75907 1-488): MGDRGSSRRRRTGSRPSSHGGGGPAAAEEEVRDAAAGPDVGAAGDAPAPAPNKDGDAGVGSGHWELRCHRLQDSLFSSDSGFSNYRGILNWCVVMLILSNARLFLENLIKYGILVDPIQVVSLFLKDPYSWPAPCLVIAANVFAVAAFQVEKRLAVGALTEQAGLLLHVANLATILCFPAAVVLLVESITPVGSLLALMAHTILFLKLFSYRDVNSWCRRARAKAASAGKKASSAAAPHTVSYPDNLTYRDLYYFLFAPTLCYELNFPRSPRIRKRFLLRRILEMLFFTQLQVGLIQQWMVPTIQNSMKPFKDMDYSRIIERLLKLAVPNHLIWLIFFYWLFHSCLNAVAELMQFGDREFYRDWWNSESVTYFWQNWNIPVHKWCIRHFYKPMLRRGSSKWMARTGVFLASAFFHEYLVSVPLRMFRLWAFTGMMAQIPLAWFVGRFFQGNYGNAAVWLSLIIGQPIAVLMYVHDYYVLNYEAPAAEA
In short: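 Recombinant human DGAT1 with diacylglycerol and 14C-labeled acyl-CoA substrates; 14C-triglyceride product captured on phospholipid-coated Flashplate and counted. IC50 from inhibition of product signal; Ki derived via Cheng-Prusoff, Ki=IC50/(1+[S]/Km).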

DGAT1 [5] = target: T2, DGAT1; assay: In vitro assay in HEK-293 cells (13C-labeled oleic acid incorporation into TG, LC/MS/MS); assay type: cell-based; design: endogenous DGAT1-expressing catalytic ^13C-labeled oleic acid incorporate to TG; endogenous in cells; host or cells: HEK293; details: HEK293 cells
From the text: In Vitro Assay in HEK-293 Cells:
We treated HEK293 cells with stable isotope ^13C-labeled oleic acid and endogenous DGAT1-expressing catalytic ^13C-labeled oleic acid incorporate to TG. The extraction and separation of cell suspension is to obtain the triglycerides composition. A LC/MS/MS method is used to measure the concentration of ^13C in TG to determine catalytic reaction rate of DGAT1, then determine the compound of DGAT1 inhibition (IC50).

- IC50 (mouse DGAT1): 0.0125 µM
- solubility (Solubility at pH 7.4): 187 µM (≈ 83.5 µg/mL)
- AUC(0-t) ([1]; male, SD, plasma, iv, 1.78-2.06 mg/kg as printed in each cell, read-out: AUC0-1 (ng · n/mL)): 2120 ng·h/mL
- half-life ([1]; male, SD, plasma, po, 8.94-9.33 mg/kg, read-out: T1/2 (b) (converted)): 3.2 h
- Vd ([1]; male, SD, plasma, intravenous, 2 mg/kg, read-out: Vdss): 1.49 L/kg
- bioavailability ([1]; male, SD, plasma, oral, 10 mg/kg): ~100%
- CI [1]: 14.4 mL/min/kg
- IC50 (DGAT1 [4]; average of first and second, read-out: hDGAT1 IC50(nM) Average): 31.3 nM
- IC50 (DGAT1 [4]; first determination, read-out: hDGAT1 IC50(nM) First): 37.7 nM
- IC50 (DGAT1 [4]; second determination, read-out: hDGAT1 IC50(nM) Second): 30 nM
- EC50 (DGAT1 [5]): 0.0221 µM
Compound: Cc1cc(N2CCOc3ncnc(N)c3C2=O)cc(C)c1-c1cn(CC(F)(F)F)nc1C [Compound 41, 4-amino-6-(3,5-dimethyl-4-(3-methyl-1-(2,2,2-trifluoroethyl)-1H-pyrazol-4-yl)phenyl)-7,8-dihydropyrimido[5,4-f][1,4]oxazepin-5(6H)-one]
- Inhibtion % @ 2 h 1 MPK PO [2]: 83% inh
- 7 days Cumulative Body Weight Change (%) [3]: −3.32%
- 7 days Cumulative Food Intake Change (%) [3]: −16.35%
